SMILES strings stand for the structures.

The first assay relates to T125A mutant virus (HIV-1 NL-432 recombinant molecular clone, IN gene). As to the kind of experiment: HIV replication inhibition assay against integrase 124/125 mutant virus (Test Example 2). Type of assay: cell-based. As to conditions: Human immunodeficiency virus 1, MT4, read-out: EC50 against T125A mutant virus, T125A mutant virus (HIV-1 NL-432 IN gene), MT-4 cells, MTT. The method, then:
Persistently HIV (HTLV-IIIB strain) infected human T cell strain Molt-4 clone8 was cultured in RPMI-1640 medium supplemented with 10% fetal bovine serum and the supernatant was filtered, then the virus titer was measured and stored at −80° C. Polymorphic mutations in HIV-1-infected patients have been observed in amino acids 124 and 125 on the HIV-1 integrase (IN) gene. A point mutation was introduced on the amino acids 124 and/or 125 of IN gene of the HIV-1 NL-432 recombinant molecular clone to generate a mutant virus plasmid construct. These mutant virus plasmids were transfected into 293T cells, and after two days, the supernatant was filtered and then the virus titer was measured and stored at −80° C. Each anti-HIV active substance was diluted with culture medium described above to the designated concentration, which was dispensed into 96-well microtiter plate by 50 μL. Next, 100 μL of MT-4 cell suspension (2.5×10^4 cells) was dispensed into each well, then 50 μl of HIV-containing supernatant diluted with culture medium described above was added thereto (60 pfu (plaque forming unit)).
Cells were cultured at 37° C. in CO2 incubator for four days, then 30 μL of MTT (3-(4,5-dimethylthiazole-2-yl)-2,5-diphenyltetrazolyum bromide) reagent (5 mg/mL in PBS) was added to all wells followed by incubation for 1 hour. In this step, MTT was reduced to insoluble formazan in living cells. To elute generated formazan, 150 μL of the culture supernatant was removed from all wells, then 150 μL of cell lysis solution (10% Triton X-100 and 0.4% (v/v)-HCl containing isopropanol) was added thereto, followed by shaking with a plate mixer. The formazan was measured with micro plate reader at OD: 560 nm and 690 nm (reference wavelength) and the result was compared with the reference wells. EC50 means the compound concentration at which 50% of cytotoxicity caused by virus infection is inhibited.
Take `COCC[C@H]1Cn2c(C)cc3c(-c4ccc(Cl)cc4)c([C@H](OC(C)(C)C)C(=O)O)c(C)c(c32)N1C` [Compound I-109]: the EC50 – broadly, the concentration at which the effect is half-maximal – is 15 nM. Turning to `Cc1c([C@H](OC(C)(C)C)C(=O)O)c(-c2ccc(Cl)cc2)c2cc(C)n3c2c1N(Cc1ncccn1)CC3` [Compound I-116], the concentration giving a half-maximal response (EC50) came out at 6.7 nM. Still for that read-out and setting: as for `Cc1c([C@H](OC(C)(C)C)C(=O)O)c(-c2ccc(Cl)cc2)c2cc(C)n3c2c1N(S(=O)(=O)CCN(C)C)CC3` [Compound I-030], the figure is 23 nM. As for `Cc1ccc(-c2c([C@H](OC(C)(C)C)C(=O)O)c(C)c3c4c2cc(C)n4CCN3CCN2CCOCC2)cc1` [Compound I-131], the concentration for a half-maximal effect (EC50) is 15 nM. The same measure, in the same setting: as for `Cc1c([C@H](OC(C)(C)C)C(=O)O)c(-c2ccc(Cl)cc2)c2c(C)c(C)n3c2c1N(C)CC3` [Compound I-080], the figure is 33 nM. In the case of `Cc1coc(N2CCn3c(C)cc4c(-c5ccc(Cl)cc5)c([C@H](OC(C)(C)C)C(=O)O)c(C)c2c43)n1` [Compound I-150], the EC50 worked out at 15 nM. For `Cc1c([C@H](OC(C)(C)C)C(=O)O)c(-c2ccc(C(F)(F)F)cc2)c2cc(C)n3c2c1N(C)CC3` [Compound I-050], the concentration giving a half-maximal response (EC50) amounted to 49 nM.

With `Cc1c([C@H](OC(C)(C)C)C(=O)O)c(-c2ccc(Cl)cc2)c2cc(C)n3c2c1N1C(=O)OC[C@@H]1C3` [Compound I-146], the EC50 was 16 nM.

On to `Cc1c([C@H](OC(C)(C)C)C(=O)O)c(-c2ccc(Cl)cc2)c2cc(C)n3c2c1N(C)[C@H](C)C3` [Compound I-057], for which the half-maximal effective concentration (EC50) was determined as 2.7 nM. Regarding `Cc1c([C@H](OC(C)(C)C)C(=O)O)c(-c2ccc(Cl)cc2)c2ccn3c2c1N(S(C)(=O)=O)CC3` [Compound I-056], the 50% effective concentration (EC50) is 59 nM. Same read-out and setting: with `COCCN1CCn2c(C)cc3c(-c4ccc(Cl)cc4)c([C@H](OC(C)(C)C)C(=O)O)c(C)c1c32` [Compound I-076] the figure was 16 nM; with `Cc1ccc(-c2c([C@H](OC(C)(C)C)C(=O)O)c(Cl)c3c4c2cc(C)n4CCN3c2ncc(C)cn2)cc1` [Compound I-301], 3.3 nM; with `COC(=O)N1c2c(C)c([C@H](OC(C)(C)C)C(=O)O)c(-c3ccc(Cl)cc3)c3cc(C)n(c23)C[C@H]1C` [Compound I-111], 4.2 nM. As for `COC(=O)N1CCn2c(C)cc3c(-c4ccc(Cl)cc4)c([C@H](OC(C)(C)C)C(=O)O)c(C)c1c32` [Compound I-031], the EC50 was 11 nM.

`Cc1c([C@H](OC(C)(C)C)C(=O)O)c(-c2ccc(F)cc2)c2cc(Cl)n3c2c1N(C)CC3` [Compound I-114]: the concentration giving a half-maximal response (EC50) was determined as 18 nM. The same measure, in the same setting: as for `Cc1c([C@H](OC(C)(C)C)C(=O)O)c(-c2ccc(Cl)cc2)c2cc(C)n3c2c1N(C1CCOCC1)CC3` [Compound I-149], the figure is 15 nM; as for `[2H]C([2H])([2H])N1CCn2c(C)cc3c(-c4ccc(F)cc4)c([C@H](OC(C)(C)C)C(=O)O)c(C)c1c32` [Compound I-118], 10 nM. As for `[2H]C1([2H])N(C)c2c(C)c([C@H](OC(C)(C)C)C(=O)O)c(-c3ccc(F)cc3)c3cc(C)n(c23)C1([2H])[2H]` [Compound I-105], the half-maximal effective concentration (EC50) amounted to 11 nM.

As to `Cc1c([C@H](OC(C)(C)C)C(=O)O)c(-c2ccc(Cl)cc2)c2cc(C)n3c2c1N(Cc1ccncc1)CC3` [Compound I-135], the EC50 amounted to 8.2 nM. Still for that read-out and setting: as for `CCNC(=O)N1CCn2c(C)cc3c(-c4ccc(Cl)cc4)c([C@H](OC(C)(C)C)C(=O)O)c(C)c1c32` [Compound I-038], the figure is 45 nM; as for `COCCc1cnc(N2CCn3c(C)cc4c(-c5ccc(C)cc5)c([C@H](OC(C)(C)C)C(=O)O)c(C)c2c43)nc1` [Compound I-336], 2.7 nM. The same measure, in the same setting: with `Cc1ccc(-c2c([C@H](OC(C)(C)C)C(=O)O)c(C)c3c4c2cc(C)n4C[C@@H](C)N3CCN(C)C)cc1` [Compound I-148] the figure was 22 nM; with `Cc1c([C@H](OC(C)(C)C)C(=O)O)c(-c2ccc(Cl)cc2)c2cc(C)n3c2c1N(S(=O)(=O)C1CC1)CC3` [Compound I-032], 5 nM; with `Cc1c([C@H](OC(C)(C)C)C(=O)O)c(-c2ccc(Cl)cc2)c2c(Cl)c(C)n3c2c1N(C)CC3` [Compound I-037], 30 nM.

`CCC(=O)N1c2c(C)c([C@H](OC(C)(C)C)C(=O)O)c(-c3ccc(Cl)cc3)c3cc(C)n(c23)C[C@@H]1C` [Compound I-069]: the EC50 came to 16 nM. Same read-out and setting: with `Cc1ccc(-c2c([C@H](OC(C)(C)C)C(=O)O)c(C)c3c4c2cc(C)n4CCN3c2ncc(Oc3ccccn3)cn2)cc1` [Compound I-339] the figure was 11 nM; with `Cc1ccc(-c2c([C@H](OC(C)(C)C)C(=O)O)c(C)c3c4c2cc(C)n4CCN3c2ncc(CO)cn2)cc1` [Compound I-290], 22 nM.

In the case of `[2H]C1([2H])N(S(C)(=O)=O)c2c(C)c([C@H](OC(C)(C)C)C(=O)O)c(-c3ccc(Cl)cc3)c3cc(C)n(c23)C1([2H])[2H]` [Compound I-034], the concentration giving a half-maximal response (EC50) was found to be 9.6 nM. With `Cc1c([C@H](OC(C)(C)C)C(=O)O)c(-c2ccc(Cl)cc2)c2cc(C)n3c2c1N(Cc1ccccn1)CC3` [Compound I-117], the 50% effective concentration (EC50) came to 8.6 nM. The same measure, in the same setting: as for `Cc1ccc(-c2c([C@H](OC(C)(C)C)C(=O)O)c(C)c3c4c2cc(C)n4CCN3c2ncc(Oc3cnccn3)cn2)cc1` [Compound I-341], the figure is 4.1 nM; as for `Cc1c([C@H](OC(C)(C)C)C(=O)O)c(-c2ccc(Cl)cc2)c2cc(C)n3c2c1N(C)CC3(C)C` [Compound I-127], 16 nM; as for `Cc1c([C@H](OC(C)(C)C)C(=O)O)c(-c2ccc(Cl)cc2)c2cc(Cl)n3c2c1N(S(C)(=O)=O)CC3` [Compound I-094], 12 nM.

For `Cc1c([C@H](OC(C)(C)C)C(=O)O)c(-c2ccc(Cl)cc2)c2cc(C)n3c2c1N(CC1CC1)[C@@H](C)C3` [Compound I-083], the EC50 turned out to be 15 nM.

Regarding `Cc1c([C@H](OC(C)(C)C)C(=O)O)c(-c2ccc(Cl)cc2)c2cc(C)n3c2c1N(c1ccccn1)CC3` [Compound I-125], the EC50 came to 8.2 nM. As to `Cc1csc(N2CCn3c(C)cc4c(-c5ccc(Cl)cc5)c([C@H](OC(C)(C)C)C(=O)O)c(C)c2c43)n1` [Compound I-147], the concentration for a half-maximal effect (EC50) was 16 nM. Same read-out and setting: with `Cc1ccc(-c2c([C@H](OC(C)(C)C)C(=O)O)c(C)c3c4c2cc(C)n4C(C)CN3CCN(C)C)cc1` (mixture of isomers) [Compound I-144] the figure was 37 nM.

Take `Cc1c([C@H](OC(C)(C)C)C(=O)O)c(-c2ccc(Cl)cc2)c2cc(C)n3c2c1N1C(=O)OCC[C@H]1C3` [Compound I-129]: the EC50 was determined as 89 nM. Same read-out and setting: with `COc1cc(Oc2cnc(N3CCn4c(C)cc5c(-c6ccc(C)cc6)c([C@H](OC(C)(C)C)C(=O)O)c(C)c3c54)nc2)nc(OC)n1` [Compound I-346] the figure was 10 nM; with `Cc1ccc(-c2c([C@H](OC(C)(C)C)C(=O)O)c(C)c3c4c2cc(Cl)n4CCN3C)cc1` [Compound I-068], 6.8 nM. Consider `Cc1c([C@H](OC(C)(C)C)C(=O)O)c(-c2ccc(Cl)cc2)c2cc(C)n3c2c1N(S(C)(=O)=O)[C@@H](CF)C3` [Compound I-095], for which the EC50 came to 14 nM. Take `Cc1c([C@H](OC(C)(C)C)C(=O)O)c(-c2ccc(Cl)cc2)c2cc(C)n3c2c1N(C)S(=O)(=O)C3` [Compound I-072]: the 50% effective concentration (EC50) is 13 nM.

Regarding `Cc1c([C@H](OC(C)(C)C)C(=O)O)c(-c2ccc(F)cc2)c2cc(C)n3c2c1N(c1ncccn1)CC3` [Compound I-123], the EC50 was 14 nM.

The assay is the same for the next values; noted with them: T125A mutant virus (HIV-1 NL-432 IN gene), MT-4 cells, MTT; read-out: EC50 against T125A mutant virus.
With `Cc1ccc(-c2c([C@H](OC(C)(C)C)C(=O)O)c(C)c3c4c2cc(C)n4C2(CCCC2)CN3C)cc1` [Compound I-302], the EC50 was found to be 43 nM. Same read-out and setting: with `Cc1ccc(-c2c([C@H](OC(C)(C)C)C(=O)O)c(C)c3c4c2cc(C)n4CCN3c2ncc(OCCNS(C)(=O)=O)cn2)cc1` [Compound I-222] the figure was 89 nM; with `Cc1c([C@H](OC(C)(C)C)C(=O)O)c(-c2ccc(Cl)cc2)c2cc(C)n3c2c1N(c1ncc(OC(F)F)cn1)CC3` [Compound I-214], 4 nM.

Still in this assay, the particulars now being: read-out: EC50 against T125A mutant virus; T125A mutant virus (HIV-1 NL-432 IN gene), MT-4 cells, MTT.
On to `Cc1c([C@H](OC(C)(C)C)C(=O)O)c(-c2ccc(F)cc2)c2cc(C)n3c2c1N(C)CC3C` (some centres unmarked) [Compound I-133], for which the EC50 amounted to 96 nM.

On to `Cc1ccc(-c2c([C@H](OC(C)(C)C)C(=O)O)c(C)c3c4c2cc(C)n4C(C)CN3CCN(C)C)cc1` (some centres unmarked) [Compound I-163], for which the EC50 was 38 nM. Take `Cc1c([C@H](OC(C)(C)C)C(=O)O)c(-c2ccc(Cl)cc2)c2cc(C)n3c2c1N(C)C1COCC13` (some centres unmarked) [Compound I-137]: the EC50 was 86 nM. Regarding `COC(=O)N1CC(C)n2c(C)cc3c(-c4ccc(Cl)cc4)c([C@H](OC(C)(C)C)C(=O)O)c(C)c1c32` (some centres unmarked) [Compound I-119], the concentration giving a half-maximal response (EC50) came out at 2.8 nM. For the molecule `Cc1c([C@H](OC(C)(C)C)C(=O)O)c(-c2ccc(Cl)cc2)c2cc(C)n3c2c1NC(=O)C3C` (some centres unmarked) [Compound I-055], the EC50 came to 24 nM.

The values are drawn from patent publication US10494380B2, “Nitrogen-containing tricyclic derivatives having HIV replication inhibitory activity” (priority 2015, dated 2019).
